Reference: US20100311714A1, “1H-IMIDAZO[4,5-c]QUINOLINONE COMPOUNDS” (priority 2009, published 2010)
Where two headings read alike, the source gives them in different places.

Experiments:
[1] = tested on: PKB Ser473 phosphorylation in Rat1-myr-HA-p110 delta cells; assay: Reverse protein array, PKB Ser473 phosphorylation in Rat1-myr-HA-p110 delta cells; format: cell-based; conditions: Rattus norvegicus, 0.5 h, 30 minutes compound incubation, read-out: p-PKB/IC50_delta
[2] = tested on: S6 Ribosomal Protein phosphorylation Ser235/236 in TSC1 null mouse embryo fibroblast (MEF) cells; assay: Reverse protein array, S6 Ribosomal Protein phosphorylation in TSC1 null MEF cells; format: cell-based; conditions: 1 h, TSC1-/- MEFs, 60 minutes
How it was run: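 Phospho-S6 (Ser235/236) was quantified by reverse protein array of cell lysates with a phospho-specific primary antibody. […]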

| SMILES | IC50 [1] [nM] | IC50 ([2]; read-out: p-S6 IC50) [nM] | IC50 ([2]; read-out: p-S6) [nM] |
| --- | --- | --- | --- |
| Cc1cc(F)ncc1-n1c(=O)n(C)c2cnc3ccc(-c4cnc(N)c(C(F)(F)F)c4)cc3c21 [Example 16.1, 8-(6-Amino-5-trifluoromethyl-pyridin-3-yl)-1-(6-fluoro-4-methyl-pyridin-3-yl)-3-methyl-1,3-dihydro-imidazo[4,5-c]quinolin-2-one] | 42.9 | < 0.457 |  |
| COc1ncccc1-n1c(=O)n(C)c2cnc3ccc(-c4cnc(N(C)C)nc4)cc3c21 [Example 1.9, 8-(2-Dimethylamino-pyrimidin-5-yl)-1-(2-methoxy-pyridin-3-yl)-3-methyl-1,3-dihydro-imidazo[4,5-c]quinolin-2-one] | 83.9 |  | 32.8 |
| CCNc1cc(-c2ccc3ncc4c(c3c2)n(-c2cnc(F)cc2C)c(=O)n4C)cnc1C [Example 16.2, 8-(5-Ethylamino-6-methyl-pyridin-3-yl)-1-(6-fluoro-4-methyl-pyridin-3-yl)-3-methyl-1,3-dihydro-imidazo[4,5-c]quinolin-2-one] | 63.3 | 6 |  |
| CCOCc1cc(-c2ccc3ncc4c(c3c2)n(-c2ccc(F)nc2C)c(=O)n4C)cnc1N [Example 7.15, 8-(6-Amino-5-ethoxymethyl-pyridin-3-yl)-1-(6-fluoro-2-methyl-pyridin-3-yl)-3-methyl-1,3-dihydro-imidazo[4,5-c]quinolin-2-one] | 172 | 8 |  |
| COCCOc1cc(-c2ccc3ncc4c(c3c2)n(-c2ccc(OC)nc2OC)c(=O)n4C)cnc1C [Example 8.9, 1-(2,6-Dimethoxy-pyridin-3-yl)-8-[5-(2-methoxy-ethoxy)-6-methyl-pyridin-3-yl]-3-methyl-1,3-dihydro-imidazo[4,5-c]quinolin-2-one] | 74.9 | 4 |  |
| CCNc1cc(-c2ccc3ncc4c(c3c2)n(-c2ccc(C)nc2C)c(=O)n4C)cnc1C [Example 14.6, 1-(2,6-Dimethyl-pyridin-3-yl)-8-(5-ethylamino-6-methyl-pyridin-3-yl)-3-methyl-1,3-dihydro-imidazo[4,5-c]quinolin-2-one] | < 4.57 | 2 |  |
| CNc1ncc(-c2ccc3ncc4c(c3c2)n(-c2ccc(NC(=O)COC)nc2C)c(=O)n4C)cn1 [Example 20.3, 2-Methoxy-N-{6-methyl-5-[3-methyl-8-(2-methylamino-pyrimidin-5-yl)-2-oxo-2,3-dihydro-imidazo[4,5-c]quinolin-1-yl]-pyridin-2-yl}-acetamide] | 218 | 44 |  |
| Cc1cc(F)ncc1-n1c(=O)n(C)c2cnc3ccc(-c4cnc5c(ccn5C)c4)cc3c21 [Example 16.5, 1-(6-Fluoro-4-methyl-pyridin-3-yl)-3-methyl-8-(1-methyl-1H-pyrrolo[2,3-b]pyridin-5-yl)-1,3-dihydro-imidazo[4,5-c]quinolin-2-one] | 407 | 12.6 |  |
| COc1ncccc1-n1c(=O)n(C)c2cnc3ccc(-c4cnc(N)c(C(F)(F)F)c4)cc3c21 [Example 1.3, 8-(6-Amino-5-trifluoromethyl-pyridin-3-yl)-1-(2-methoxy-pyridin-3-yl)-3-methyl-1,3-dihydro-imidazo[4,5-c]quinolin-2-one] | 15.5 |  | 1.52 |
| COc1ccc(-n2c(=O)n(C)c3cnc4ccc(-c5ccc6nccn6c5)cc4c32)c(OC)n1 [Example 8.10, 1-(2,6-Dimethoxy-pyridin-3-yl)-8-imidazo[1,2-a]pyridin-6-yl-3-methyl-1,3-dihydro-imidazo[4,5-c]quinolin-2-one] | 412 | 6.8 |  |
| Cc1nc(N2CC(F)(F)C(F)(F)C2)ccc1-n1c(=O)n(C)c2cnc3ccc(-c4cncc(C(C)(C)O)c4)cc3c21 [Example 35.1, 8-[5-(1-Hydroxy-1-methyl-ethyl)-pyridin-3-yl]-3-methyl-1-[2-methyl-6-(3,3,4,4-tetrafluoro-pyrrolidin-1-yl)-pyridin-3-yl]-1,3-dihydro-imidazo[4,5-c]quinolin-2-one] | 25.5 | 0.79 |  |
| CNc1ccc(-c2ccc3ncc4c(c3c2)n(-c2ccc(N3CCCC3)nc2C)c(=O)n4C)cn1 [Example 25.1, 3-Methyl-8-(6-methylamino-pyridin-3-yl)-1-(2-methyl-6-pyrrolidin-1-yl-pyridin-3-yl)-1,3-dihydro-imidazo[4,5-c]quinolin-2-one] | 26 | 1 |  |
| Cc1nc(F)ccc1-n1c(=O)n(C)c2cnc3ccc(-c4cnc(N)c(CO)c4)cc3c21 [Example 7.17, 8-(6-Amino-5-hydroxymethyl-pyridin-3-yl)-1-(6-fluoro-2-methyl-pyridin-3-yl)-3-methyl-1,3-dihydro-imidazo[4,5-c]quinolin-2-one] | 119 | 5 |  |

More lines, main results first:

| IC50 [1] [nM] | SMILES | IC50 ([2]; read-out: p-S6 IC50) [nM] | IC50 ([2]; read-out: p-S6) [nM] |
| --- | --- | --- | --- |
| 83.9 | COCCOc1ccc(-n2c(=O)n(C)c3cnc4ccc(-c5cncc(N6CCC6)c5)cc4c32)c(C)n1 [Example 22.2, 8-(5-Azetidin-1-yl-pyridin-3-yl)-1-[6-(2-methoxy-ethoxy)-2-methyl-pyridin-3-yl]-3-methyl-1,3-dihydro-imidazo[4,5-c]quinolin-2-one] | 2 |  |
| 45.7 | CCN(C)c1ccc(-n2c(=O)n(C)c3cnc4ccc(-c5ccc(NC)nc5)cc4c32)c(C)n1 [Example 12.1, 1-[6-(Ethyl-methyl-amino)-2-methyl-pyridin-3-yl]-3-methyl-8-(6-methylamino-pyridin-3-yl)-1,3-dihydro-imidazo[4,5-c]quinolin-2-one] | < 0.457 |  |
| 412 | CCOc1ccc(-c2ccc3ncc4c(c3c2)n(-c2cncc(C)c2)c(=O)n4C)cn1 [Example 17.1, 8-(6-Ethoxy-pyridin-3-yl)-3-methyl-1-(5-methyl-pyridin-3-yl)-1,3-dihydro-imidazo[4,5-c]quinolin-2-one] | 29 |  |
| 75.7 | CCOc1cc(-c2ccc3ncc4c(c3c2)n(-c2cccnc2C)c(=O)n4C)cnc1C [Example 2.22, 8-(5-Ethoxy-6-methyl-pyridin-3-yl)-3-methyl-1-(2-methyl-pyridin-3-yl)-1,3-dihydro-imidazo[4,5-c]quinolin-2-one] | 12 |  |
| 408 | CNc1ccc(-c2ccc3ncc4c(c3c2)n(-c2cnc(F)cc2C)c(=O)n4C)cn1 [Example 16.4, 1-(6-Fluoro-4-methyl-pyridin-3-yl)-3-methyl-8-(6-methylamino-pyridin-3-yl)-1,3-dihydro-imidazo[4,5-c]quinolin-2-one] | 5 |  |
| 38.5 | CNc1ccc(-c2ccc3ncc4c(c3c2)n(-c2ccc(OCCOC)nc2C)c(=O)n4C)cn1 [Example 13.3, 1-[6-(2-Methoxy-ethoxy)-2-methyl-pyridin-3-yl]-3-methyl-8-(6-methylamino-pyridin-3-yl)-1,3-dihydro-imidazo[4,5-c]quinolin-2-one] | 3 |  |
| 90.7 | COc1ccc(-n2c(=O)n(C)c3cnc4ccc(-c5cnc(N(C)C)nc5)cc4c32)c(Cl)n1 [Example 18.3, 1-(2-Chloro-6-methoxy-pyridin-3-yl)-8-(2-dimethylamino-pyrimidin-5-yl)-3-methyl-1,3-dihydro-imidazo[4,5-c]quinolin-2-one] | 4.3 |  |
| 29.4 | CNc1ccc(-c2ccc3ncc4c(c3c2)n(-c2cccnc2OC)c(=O)n4C)cn1 [Example 1.4, 1-(2-Methoxy-pyridin-3-yl)-3-methyl-8-(6-methylamino-pyridin-3-yl)-1,3-dihydro-imidazo[4,5-c]quinolin-2-one] |  | 8.24 |
